Key:
U87MG_IDH1R132H = assay: Cellular 2-HG production assay, U87-MG-IDH1 R132H; type: cell-based; details: inhibition of 2HG production, 72 hr incubation, LC-MS/MS
Description: Cell lines HT-1080 (commercially available) and U87-MG-IDH1^R132H (obtained in analoy to the procedure reported in J. Mol. Neurosci 2013, 50, 165-71) are maintained in E-MEM 10% FCS and incubated at 37° C. in a humidified 5% CO2 atmosphere. Stably transfected U87-MG cell lines are also supplemented with 500 μg/mL G418.
Cells are seeded into 96 well black flat bottom plates at a density of 500 cells/well in 100 μL complete medium. After 24 hr the medium is replaced with 200 uL of fresh medium and compounds (dissolved into DMSO) are administrated to the cells using D300E Digital Dispenser (Tecan).
After 72 hr of incubation 100 uL from each well are collected and used for 2HG (R(−)-2-hydroxyglutarate) quantification.
Levels of 2-HG in cell culture media are determined by LC-MS/MS. Cell supernatants (100 μL/well) are treated with 1 M aqueous trichloroacetic acid containing 130 μM of the internal standard 2-HG-d3 (20 μL/well) in a 96-well plate.
The plates are sealed, mildly vortexed for 60 minutes, centrifuged at 4,000 RPM for 15 minutes, placed in a refrigerated autosampler taking care not to shake them, and aliquots of the upper part of the samples are directly injected in the chromatographic system. Calibration standards are obtained by ten fold dilution of aqueous 2-HG stock solutions with blank cell culture medium and denatured exactly in the same way as described above for samples. Samples and standards are assayed for 2-HG by reversed phase chromatography on a C18 column eluted with aqueous 0.15% formic acid and briefly washed with 90% methanol at the end of the run. 2-HG is determined by negative ion electrospray ionization with the internal standard method on a triple quadrupole mass spectrometer monitoring the MRM transitions 147>129 (2-HG) and 150>132 (2-HG-d3). 2-HG inhibition was calculated by comparing treated versus control data using Assay Explore (Symyx) software, with IC50 determined using a sigmoidal fitting algorithm.

HT-1080 (IDH1^R132C) = assay: Cellular 2-HG production assay, HT-1080; type: cell-based; details: Homo sapiens, HT-1080, 72 h, inhibition of 2HG production, 72 hr incubation, LC-MS/MS; read-out: HT1080 2-HG IC50
How it was run: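 Cells in E-MEM/10% FCS (G418 500 μg/mL for the transfected U87-MG line) at 500 per well got compound 24 h after seeding and were incubated 72 h at 37 °C. Medium 2-HG was measured by LC-MS/MS with 2-HG-d3 internal standard; IC50 came from sigmoidal fitting versus controls.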

IDH2^R172K = target: T1, IDH2^R172K (Homo sapiens, UniProt P48735, R172K); assay: NADPH depletion assay, IDH2 R172K; type: biochemical
T1 construct: purchased not specified
T1 sequence (P48735 40-452 R172K): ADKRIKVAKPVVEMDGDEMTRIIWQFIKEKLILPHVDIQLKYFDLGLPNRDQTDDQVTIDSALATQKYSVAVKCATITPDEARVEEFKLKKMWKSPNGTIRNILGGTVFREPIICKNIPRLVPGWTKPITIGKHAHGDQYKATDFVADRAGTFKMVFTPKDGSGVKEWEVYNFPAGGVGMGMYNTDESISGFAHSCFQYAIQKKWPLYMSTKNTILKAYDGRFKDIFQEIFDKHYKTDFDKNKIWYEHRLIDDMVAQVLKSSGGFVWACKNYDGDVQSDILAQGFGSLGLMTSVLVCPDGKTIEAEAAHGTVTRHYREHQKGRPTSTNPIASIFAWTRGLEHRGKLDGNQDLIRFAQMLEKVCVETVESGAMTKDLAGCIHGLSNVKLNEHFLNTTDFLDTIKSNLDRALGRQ
How it was run: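 This NADPH depletion assay measures NADPH left after conversion of alpha-ketoglutarate (0.55 mM final) by 16 nM IDH2 R172K over 60 min at room temperature, after a 15 min compound preincubation in pH 7.6 Tris buffer. Substrate mix held 12 μM NADPH. Diaphorase/resazurin gave the fluorescence read-out at 544/590 nm.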

IDH1^R132C = target: T2, IDH1^R132C (Homo sapiens, UniProt O75874, R132C); assay: NADPH depletion assay, IDH1 R132C; type: biochemical
T2 construct: purchased not specified
How it was run: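 Fluorescence readout (Ex544/Em590) of NADPH left after diaphorase/resazurin addition. Alpha-ketoglutarate 0.14 mM final, enzyme 2 nM final; compound preincubation 15 min, then 60 min reaction, both at room temperature, pH 7.6 Tris buffer.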

IDH1WT enzyme = target: T3, IDH1WT enzyme (Homo sapiens, UniProt O75874); assay: Enzymatic assay for IDH1 wild-type (NADPH forming assay); type: biochemical
T3 construct: purchased not specified
Description: IDH1WT enzymatic activity converting isocitric acid to alpha-ketoglutarate is measured using a NADPH forming assay. In the assay the forming cofactor is measured in continuous with the addition of a catalytic excess of diaphorase and resazurin, to generate a fluorescent signal in proportion to the amount of NADPH forming.
Compounds were preincubated with the enzyme, then the reaction was started by the addition of NADP^+, isocitrate, diaphorase and a corresponding substrate, resazurin. Diaphorase reduces resazurin to the highly fluorescent resorufin with the concomitant oxidation of NADPH to NADP. Specifically, 0.2 uL of test compound, previously serially diluted 1 to 3, 10 experimental points from 1 mM in DMSO, was added to 0.016 nM IDH1WT enzyme in 10 μL of Assay Buffer (150 mM NaCl, 50 mM Tris-HCl pH 7.6, 10 mM MgCl2, 0.001% Triton X-100, 4 mM β-mercaptoethanol); the mixture is incubated for 15 minutes at room temperature. The reaction is started with the addition of 10 μL of Substrate Mix (400 μM NADP^+, 40 μM iso-citrate, 5 ugr/mL Diaphorase and 7 μM resazurin in Assay Buffer), the mixture is incubated at room temperature and the reaction is reading on a ViewLux as platereader at Ex544/Em590 in continuous.

[1] = target: T4, IDH1^R132H homodimer enzyme (Homo sapiens, UniProt O75874, R132H); assay: NADPH depletion assay, IDH1 R132H; type: biochemical
T4 construct: purchased not specified
How it was run: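 IDH1 R132H enzyme (8 nM as diluted) in Tris-HCl pH 7.6 with 10 mM MgCl2, 0.001% Triton X-100 and 4 mM β-mercaptoethanol is preincubated 15 min at RT with compound. Substrate mix (12 uM NADPH, 3.4 mM α-ketoglutarate) is added for 60 min; remaining NAD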

T2 sequence (O75874 whole entry R132C): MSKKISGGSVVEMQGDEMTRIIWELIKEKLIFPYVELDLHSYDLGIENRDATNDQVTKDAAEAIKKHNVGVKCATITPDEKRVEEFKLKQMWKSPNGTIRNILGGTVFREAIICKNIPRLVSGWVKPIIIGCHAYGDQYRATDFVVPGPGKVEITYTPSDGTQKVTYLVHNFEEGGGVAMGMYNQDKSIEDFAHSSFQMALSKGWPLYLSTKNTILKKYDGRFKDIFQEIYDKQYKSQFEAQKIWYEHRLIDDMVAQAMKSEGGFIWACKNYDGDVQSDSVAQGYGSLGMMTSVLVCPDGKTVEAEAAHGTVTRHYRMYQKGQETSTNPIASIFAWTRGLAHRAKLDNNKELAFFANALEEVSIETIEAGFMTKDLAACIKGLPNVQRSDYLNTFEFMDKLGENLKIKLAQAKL
T3 sequence (O75874 whole entry): as the sequence (O75874 whole entry R132C) above, with C132R counted along it
T4 sequence (O75874 whole entry R132H): as the sequence (O75874 whole entry R132C) above, with C132H counted along it

Structure (SMILES)	IC50 (U87MG_IDH1R132H) [nM]	IC50 (HT-1080 (IDH1^R132C)) [nM]	IC50 (IDH2^R172K) [nM]	IC50 (IDH1^R132C) [nM]	IC50 (IDH1WT enzyme) [nM]	IC50 [1] [nM]
CC(C)[C@H](C)n1c(=O)ccc2cnc(N[C@@H](C)c3ccc(CN4CCC(F)(F)CC4)c(F)c3)nc21 [cpd 67, 2-{[(1S)-1-{4-[(4,4-difluoropiperidin-1-yl)methyl]-3-fluorophenyl}ethyl]amino}-8-[(2S)-3-methylbutan-2-yl]pyrido[2,3-d]pyrimidin-7(8H)-one]	200	67	7360	15	1710	37
C[C@H](Nc1ncc2ccc(=O)n(CC(C)(C)C)c2n1)c1ccc(CN2CCC(F)(F)CC2)c(F)c1 [cpd 94, 2-{[(1S)-1-{4-[(4,4-difluoropiperidin-1-yl)methyl]-3-fluorophenyl}ethyl]amino}-8-(2,2-dimethylpropyl) pyrido[2,3-d]pyrimidin-7(8H)-one]	370	203	5570	30	1330	71
C[C@H](Nc1ncc2ccc(=O)n(CC(C)(C)C)c2n1)c1ccc(CN2CCC(F)(F)CC2)cc1 [cpd 105, 2-{[(1S)-1-{4-[(4,4-difluoropiperidin-1-yl)methyl]phenyl)ethyl]amino)-8-(2,2-dimethylpropyl)pyrido[2,3-d]pyrimidin-7(8H)-one]	417	116	4730	55	2040	105
C[C@H](Nc1ncc2ccc(=O)n(CC(C)(C)C)c2n1)c1ccc(CN2CCCC(F)(F)C2)cc1 [cpd 117, 2-{[(1S)-1-{4-[(3,3-difluoropiperidin-1-yl)methyl]phenyl}ethyl]amino}-8-(2,2-dimethylpropyl)pyrido[2,3-d]pyrimidin-7(8H)-one]	177	155	5510	29	1580	55
C=CC(=O)N1CCN(Cc2ccc([C@H](C)Nc3ncc4ccc(=O)n(CC(C)(C)C)c4n3)cc2)CC1 [cpd 139, 2-{(S)-1-[4-(4-Acryloyl-piperazin-1-ylmethyl)-phenyl]-ethylamino}-8-(2,2-dimethyl-propyl)-8H-pyrido[2,3-d]pyrimidin-7-one]	8	22	264	21	720	42
C=CC(=O)N1CCN(Cc2ccc([C@H](C)Nc3ncc4ccc(=O)n(CC(C)(C)C)c4n3)cc2F)CC1 [cpd 141, 2-{[(1S)-1-{4-[(4-acryloylpiperazin-1-yl)methyl]-3-fluorophenyl}ethyl]amino}-8-(2,2-dimethylpropyl)pyrido[2,3-d] pyrimidin-7(8H)-one]	24		213	31	1820	38
C=CC(=O)N1CCC(Oc2ccc([C@H](C)Nc3ncc4ccc(=O)n(CC(C)(C)C)c4n3)cc2)CC1 [cpd 156, 2-{(S)-1-[4-(1-Acryloyl-piperidin-4-yloxy)-phenyl]-ethylamino}-8-(2,2-dimethyl-propyl)-8H-pyrido[2,3-d]pyrimidin-7-one]	289		476	91	2540	139

The remaining lines, values ahead:

IC50 (U87MG_IDH1R132H) [nM]	IC50 (HT-1080 (IDH1^R132C)) [nM]	IC50 (IDH2^R172K) [nM]	IC50 (IDH1^R132C) [nM]	IC50 (IDH1WT enzyme) [nM]	IC50 [1] [nM]	Structure (SMILES)
13	20	386	44	839	83	C=CC(=O)N1CCN(C(CC)c2ccc([C@@H](C)Nc3ncc4ccc(=O)n(C(C)C)c4n3)cc2)CC1 (stereo in doubt) [cpd 229, 2-{[(1R)-1-{4-[(1R)-1-(4-acryloylpiperazin-1-yl)propyl]phenyl}ethyl]amino}-8-(propan-2-yl)pyrido[2,3-d]pyrimidin-7(8H)-one]
81		510	37	1730	77	C=CC(=O)N1CCC(Oc2ccc([C@H](C)Nc3ncc4ccc(=O)n([C@@H](C)C(C)C)c4n3)cc2)CC1 [cpd 159, 2-{(S)-1-[4-(1-Acryloyl-piperidin-4-yloxy)-phenyl]-ethylamino}-8-((S)-1,2-dimethyl-propyl)-8H-pyrido[2,3-d]pyrimidin-7-one]
21		442	66	1170	65	C=CC(=O)N1CCN(c2ccc([C@H](C)Nc3ncc4ccc(=O)n([C@@H](C)C(C)C)c4n3)cc2)CC1 [cpd 175, 2-({(1S)-1-[4-(4-acryloylpiperazin-1-yl)phenyl]ethyl}amino)-8-[(2S)-3-methylbutan-2-yl]pyrido[2,3-d]pyrimidin-7(8H)-one]
	64.7	146	196	117	272	C=CC(=O)N1CCC(C#N)(c2ccc([C@H](C)Nc3ncc4ccc(=O)n(C(C)C)c4n3)cc2)CC1 [cpd 241, 1-acryloyl-4-{4-[(1S)-1-{[7-oxo-8-(propan-2-yl)-7,8-dihydropyrido[2,3-d]pyrimidin-2-yl]amino}ethyl]phenyl}piperidine-4-carbonitrile]
	1.6	21	3	220	2	C=CC(=O)N1CCN(C(CC2CC2)c2ccc(C3(Nc4ncc5ccc(=O)n(C(C)C)c5n4)CC3)cc2)CC1 (centres unmarked) [cpd 244, 2-[(1-{4-[1-(4-acryloylpiperazin-1-yl)-2-cyclopropylethyl]phenyl}cyclopropyl)amino]-8-(propan-2-yl)pyrido[2,3-d]pyrimidin-7(8H)-one]
	3	35	4	215	5	C=CC(=O)N1CCN(C(CC)c2ccc(C3(Nc4ncc5ccc(=O)n(C(C)C)c5n4)CC3)cc2)CC1 (centres unmarked) [cpd 247, 2-[(1-{4-[1-(4-acryloylpiperazin-1-yl)propyl]phenyl}cyclopropyl)amino]-8-(propan-2-yl)pyrido[2,3-d]pyrimidin-7(8H)-one]

Source: US12018023B2 (NERVIANO MEDICAL SCIENCES S.R.L., priority 2018, dated 2024)
